Assays:
M1619 melanoma cells = assay: Apoptosis by TdT 3'-OH fluorescein end-labeling of DNA fragments; assay type: cell-based, human; settings: 5 μM disulfiram; 15 hours
Procedure: To determine whether disulfiram induced apoptosis, cells grown to confluence on 35 mm Petri dishes or on glass slides were treated with disulfiram or DMSO as vehicle. Apoptosis was studied by terminal deoxynucleotidyl transferase (TdT) dependent 3′-OH fluorescein end-labeling of DNA fragments, using a Fluorescein-FragEL™ DNA fragmentation detection kit (Oncogene Research Products, Cambridge, Mass.). Apoptosis was also studied by visually assessing endonuclease dependent DNA fragmentation on ethidium bromide-stained agarose gels.
In FIG. 5A, M1619 melanoma cells treated with DMSO vehicle. In FIG. 5B, M1619 melanoma cells treated with 5 μM disulfiram. […] Cells were grown to confluence on 35 mm Petri dishes or on glass slides and treated for 15 hours with disulfiram or DMSO as vehicle. Apoptosis was studied by terminal deoxynucleotidyl transferase (TdT) dependent 3′-OH fluorescein end-labeling of DNA fragments, using a Fluorescein-FragEL™ DNA fragmentation detection kit (Oncogene Research Products, Cambridge, Mass.).

[1] = tested on: H520 lung carcinoma cells; assay: Trypan blue cytotoxicity, H520; assay type: cell-based, human; settings: 0.625 μM disulfiram; 36 hours
Procedure: To assess for cytotoxicity, cells were plated at a density of 50,000 per well on 24 well plates and grown for 24 hours. Disulfiram was then added. After an additional 36 hours, medium was removed and replaced with DPBS containing 0.1% trypan blue. Cell death was assessed by counting the average number of trypan blue positive cells per 10×field in 5 random fields for 4 separate wells.

[2] = tested on: Prostate carcinoma CRL 1435 (PC-3); assay: MTT proliferation assay, prostate carcinoma PC-3; assay type: cell-based; settings: Homo sapiens, treatment initially, after 48 hours, 10% FBS, read-out: Mean Percent Inhibition of Growth
Procedure: Human malignant cell lines were obtained from American Type Tissue Culture Collection (Rockville, Md.). Melanoma cells lines CRL 1585 and 1619 were cultured in RPMI 1640 (GIBCO-BRL, Life Technologies, Grand Island, N.Y.) with 10% FBS and passed with nonenzymatic Cell Dissociation Solution® (Sigma). The prostate adenocarcinoma cell line CRL 1435 (PC-3) was also cultured in RPMI 1640 with 10% FBS but passed with 0.05% trypsin and 0.53 mM EDTA. The squamous lung carcinoma NCI-H520 and the adenosquamous lung carcinoma NCI-H596 cell lines were grown in RPMI 1640 supplemented with 10% FBS, 10 mM HEPES and 1.0 mM sodium pyruvate and passed with trypsin/EDTA. The small cell lung carcinoma NCI-H82 was cultured as a suspension in RPMI 1640 with 10% FBS. All of the above were grown in a 37° C. humidified environment containing 5% CO2/air. The breast carcinoma cell line MDA-MB-453 was grown in a 37° C. humidified environment with free gas exchange with atmospheric air using Leibovitz's L-15 medium with 2 mM L-glutamine and 10% FBS and was passed with trypsin/EDTA.
The effect of disulfiram (0.15 to 5.0 μM), diethyldithiocarbamate (DDC, 1.0 μM) or PDTC (0.625 to 5.0 μM) on proliferation of malignant cell lines was studied in cultures stimulated with 10% FBS. Cell numbers were quantitated 24-72 hours later. In some experiments disulfiram or PDTC were added immediately after cells were plated. In other experiments, cells were plated and allowed to grow for 24-72 hours before fresh media with disulfiram or PDTC was added, and cell numbers were assayed 24-72 hours later. […]
Proliferation of cultured cells was quantitated using a previously reported calorimetric method based upon metabolic reduction of the soluble yellow tetrazolium dye 3-[4,5-dimethylthiazol]-2yl-2,5-diphenyl tetrazolium bromide (MTT) to its insoluble purple formazan by the action of mitochondrial succinyl dehydrogenase (See, e.g., S. J. Hirst, et al., “Quantifying proliferation of cultured human and rabbit airway smooth muscle in response to serum and platelet derived growth factor,” Am. J. Respir. Cell Mol. Biol. 7:574-581 (1992); R. Dashtaki, et al. R., supra; S. S. Brar, et al., “Requirement for reactive oxygen species in serum-induced and platelet-derived growth factor-induced growth of airway smooth muscle,” J. Biol. Chem. 274:20017-20026 (1999)). […] MTT-containing medium was removed, 0.5 ml dimethylsulfoxide (DMSO) was added to each well, and the absorbance of the solubilized purple formazan dye was measured at 540 nm. […]

With `CCN(CC)C(=S)SSC(=S)N(CC)CC` [Disulfiram, tetraethylthiuram disulfide] the “3'-OH fluorescein end-labeling of DNA fragments (apoptosis)” value (M1619 melanoma cells) was “markedly increases”, the “trypan blue positive cells” value [1] was 94±18 trypan blue positive cells per well and the inhibition at 0.625 µM ([2]; disulfiram 0.625 μM) was 6 ± 6%. It also gave an inhibition at 1.25 µM ([2]; disulfiram 1.25 μM) of 29 ± 5%, an inhibition at 2.5 µM ([2]; disulfiram 2.5 μM) of 48 ± 2% and an inhibition at 5 µM ([2]; disulfiram 5.0 μM) of 86 ± 2%.

Source: US6548540B2, “Method of treating cancer using dithiocarbamate derivatives” (Charlotte-Mecklenburg Hospital Authority, priority 1998, dated 2003)
